Results from ChEMBL document CHEMBL4725251, “Structure-activity relationships of tubulysin analogues” (Bioorg Med Chem Lett, 2020).
pEC50: −log10 of the molar value.

Tests used:
[1] = molecular target: Tubulin (Homo sapiens) (UniProt P68371+Q9H4B7+P0DPH7+P68366+Q13509+Q71U36+P04350+Q3ZCM7+P07437+P68363+Q9BQE3+Q6PEY2+Q13885+Q9BVA1+Q9BUF5); assay: Binding affinity to tubulin (unknown origin) by fluorescence polarization displacement assay; format: protein-complex assay
[2] = test system: L-540; assay: Antiproliferative against human L540cy cells incubated for 96 hrs by cellTiter-Glo assay; format: functional, cell-based; details: L-540, 96 h
[3] = test system: DEL; assay: Antiproliferative against human DEL cells incubated for 96 hrs by cellTiter-Glo assay; format: functional, cell-based
[4] = Antiproliferative against human DEL/BVR cells incubated for 96 hrs by cellTiter-Glo assay; format: functional, cell-based
[5] = test system: L-428; assay: Antiproliferative against human L428 cells incubated for 96 hrs by cellTiter-Glo assay; format: functional, cell-based; details: L-428, 96 h

CCO[C@H](C[C@H](C(C)C)N(C)C(=O)[C@H](C)NC(=O)[C@H]1CCCCN1C)c1nc(C(=O)N[C@@H](Cc2ccccc2)C[C@H](C)C(=O)O)cs1
relative binding affinity (RBA) [1]: 0.03
pEC50 [2]: 6.96
pEC50 [3]: 7.68
pEC50 [4]: 6.38

CCO[C@H](C[C@H](C(C)C)N(C)C(=O)[C@@H](NC(=O)C12CC(CCN1C)C2)[C@@H](C)CC)c1nc(C(=O)N[C@@H](Cc2ccccc2)C[C@H](C)C(=O)O)cs1
relative binding affinity (RBA) [1]: 0.23
pEC50 [2]: 9.00
pEC50 [3]: 9.70
pEC50 [4]: 8.70

CCO[C@H](C[C@H](C(C)C)N(C)C(=O)[C@@H](NC(=O)[C@H]1[C@@H]2CC[C@@H](C2)N1C)[C@@H](C)CC)c1nc(C(=O)N[C@@H](Cc2ccccc2)C[C@H](C)C(=O)O)cs1
relative binding affinity (RBA) [1]: 0.08
pEC50 [2]: 8.10
pEC50 [3]: 8.70
pEC50 [4]: 7.82

CC[C@H](C)[C@H](NC(=O)[C@H]1CCCCN1C)C(=O)N(C)[C@H](C[C@@H](OCc1ccccc1)c1nc(C(=O)N[C@@H](Cc2ccccc2)C[C@H](C)C(=O)O)cs1)C(C)C
relative binding affinity (RBA) [1]: 0.07
pEC50 [5]: 9.24
pEC50 [2]: 9.40

CCO[C@H](C[C@H](C(C)C)N(C)C(=O)[C@@H](NC(=O)[C@H]1CCCCN1C)C1CCCC1)c1nc(C(=O)N[C@@H](Cc2ccccc2)C[C@H](C)C(=O)O)cs1
relative binding affinity (RBA) [1]: 0.45
pEC50 [2]: 9.70
pEC50 [3]: 10.00
pEC50 [4]: 9.00

CCO[C@H](C[C@H](C(C)C)N(C)C(=O)CNC(=O)[C@H]1CCCCN1C)c1nc(C(=O)N[C@@H](Cc2ccccc2)C[C@H](C)C(=O)O)cs1
pEC50 [2]: 5.34
pEC50 [3]: 5.48
pEC50 [4]: 5.02

CC[C@H](C)[C@H](NC(=O)[C@H]1CCCCN1C)C(=O)N(C)[C@H](C[C@@H](OC(=O)C(C)C)c1nc(C(=O)N[C@@H](Cc2ccccc2)C[C@H](C)C(=O)O)cs1)C(C)C
relative binding affinity (RBA) [1]: 0.36
pEC50 [5]: 9.92
pEC50 [2]: 10.00

C=C(C)CO[C@H](C[C@H](C(C)C)N(C)C(=O)[C@@H](NC(=O)[C@H]1CCCCN1C)[C@@H](C)CC)c1nc(C(=O)N[C@@H](Cc2ccccc2)C[C@H](C)C(=O)O)cs1
relative binding affinity (RBA) [1]: 0.43
pEC50 [5]: 9.92
pEC50 [2]: 10.22

CCO[C@H](C[C@H](C(C)C)N(C)C(=O)[C@@H](NC(=O)[C@H]1CCCCN1C)[C@@H](C)OC(C)(C)C)c1nc(C(=O)N[C@@H](Cc2ccccc2)C[C@H](C)C(=O)O)cs1
relative binding affinity (RBA) [1]: 0.83
pEC50 [2]: 10.00
pEC50 [3]: 10.00
pEC50 [4]: 9.40

CCO[C@H](C[C@H](C(C)C)N(C)C(=O)[C@@H](NC(=O)[C@H]1CCCCN1C)C(CC)CC)c1nc(C(=O)N[C@@H](Cc2ccccc2)C[C@H](C)C(=O)O)cs1
relative binding affinity (RBA) [1]: 0.2
pEC50 [2]: 9.00
pEC50 [3]: 9.40
pEC50 [4]: 8.40

C#CCO[C@H](C[C@H](C(C)C)N(C)C(=O)[C@@H](NC(=O)[C@H]1CCCCN1C)[C@@H](C)CC)c1nc(C(=O)N[C@@H](Cc2ccccc2)C[C@H](C)C(=O)O)cs1
relative binding affinity (RBA) [1]: 0.59
pEC50 [5]: 9.39
pEC50 [2]: 9.77

CCO[C@H](C[C@H](C(C)C)N(C)C(=O)[C@@H](NC(=O)[C@H]1CCCCN1C)[C@H](C)CC)c1nc(C(=O)N[C@@H](Cc2ccccc2)C[C@H](C)C(=O)O)cs1
relative binding affinity (RBA) [1]: 0.007
pEC50 [2]: 7.89
pEC50 [3]: 8.52
pEC50 [4]: 7.21

CCO[C@H](C[C@H](C(C)C)N(C)C(=O)[C@@H](NC(=O)C1CCC(F)(F)CN1C)[C@@H](C)CC)c1nc(C(=O)N[C@@H](Cc2ccccc2)C[C@H](C)C(=O)O)cs1 (mixture of isomers)
relative binding affinity (RBA) [1]: 0.07
pEC50 [2]: 7.82
pEC50 [3]: 8.05
pEC50 [4]: 7.18

CC[C@H](C)[C@H](NC(=O)[C@H]1CCCCN1C)C(=O)N(C)[C@H](C[C@@H](OCC(C)=O)c1nc(C(=O)N[C@@H](Cc2ccccc2)C[C@H](C)C(=O)O)cs1)C(C)C
relative binding affinity (RBA) [1]: 0.27
pEC50 [5]: 9.00
pEC50 [2]: 9.22

CCO[C@H](C[C@H](C(C)C)N(C)C(=O)[C@@H](NC(=O)[C@@]1(C)CCCN1C)[C@@H](C)CC)c1nc(C(=O)N[C@@H](Cc2ccccc2)C[C@H](C)C(=O)O)cs1
relative binding affinity (RBA) [1]: 0.38
pEC50 [2]: 9.00
pEC50 [3]: 9.52
pEC50 [4]: 8.70

CCO[C@H](C[C@H](C(C)C)N(C)C(=O)[C@@H](NC(=O)[C@H]1CCCCN1C)[C@@H](C)OC)c1nc(C(=O)N[C@@H](Cc2ccccc2)C[C@H](C)C(=O)O)cs1
relative binding affinity (RBA) [1]: 0.03
pEC50 [2]: 8.22
pEC50 [3]: 9.00
pEC50 [4]: 7.18

CCO[C@H](C[C@H](C(C)C)N(C)C(=O)[C@@H](NC(=O)C1CN(C)CCN1C)[C@@H](C)CC)c1nc(C(=O)N[C@@H](Cc2ccccc2)C[C@H](C)C(=O)O)cs1 (mixture of isomers)
pEC50 [2]: < 6.00

CCC(=O)O[C@H](C[C@H](C(C)C)N(C)C(=O)[C@@H](NC(=O)[C@H]1CCCCN1C)[C@@H](C)CC)c1nc(C(=O)N[C@@H](Cc2ccccc2)C[C@H](C)C(=O)O)cs1
relative binding affinity (RBA) [1]: 0.97
pEC50 [5]: 10.40
pEC50 [2]: 10.22

CCO[C@H](C[C@H](C(C)C)N(C)C(=O)[C@@H](NC(=O)[C@H]1CCCCN1C)[C@H](C)OC(C)(C)C)c1nc(C(=O)N[C@@H](Cc2ccccc2)C[C@H](C)C(=O)O)cs1
relative binding affinity (RBA) [1]: 0.06
pEC50 [2]: 7.09
pEC50 [3]: 7.77
pEC50 [4]: 6.91

CCO[C@H](C[C@H](C(C)C)N(C)C(=O)[C@@H](NC(=O)[C@H]1CCCCN1C)[C@@H](C)CC)c1nc(C(=O)N[C@@H](Cc2ccccc2)C[C@H](C)C(=O)O)cs1
relative binding affinity (RBA) [1]: 0.27
pEC50 [5]: 9.89
pEC50 [2]: 9.40
pEC50 [3]: 10.40
pEC50 [4]: 9.00

CC[C@H](C)[C@H](NC(=O)[C@H]1CCCCN1C)C(=O)N(C)[C@H](C[C@@H](OC)c1nc(C(=O)N[C@@H](Cc2ccccc2)C[C@H](C)C(=O)O)cs1)C(C)C
relative binding affinity (RBA) [1]: 0.42
pEC50 [5]: 9.32
pEC50 [2]: 9.92

C=CCO[C@H](C[C@H](C(C)C)N(C)C(=O)[C@@H](NC(=O)[C@H]1CCCCN1C)[C@@H](C)CC)c1nc(C(=O)N[C@@H](Cc2ccccc2)C[C@H](C)C(=O)O)cs1
relative binding affinity (RBA) [1]: 0.88
pEC50 [5]: 9.82
pEC50 [2]: 9.92

CCO[C@H](C[C@H](C(C)C)N(C)C(=O)[C@@H](NC(=O)[C@H]1CCCCN1C)[C@H](C)OC)c1nc(C(=O)N[C@@H](Cc2ccccc2)C[C@H](C)C(=O)O)cs1
relative binding affinity (RBA) [1]: 0.001
pEC50 [2]: 8.30
pEC50 [3]: 9.00
pEC50 [4]: 7.77

CCO[C@H](C[C@H](C(C)C)N(C)C(=O)[C@@H](NC(=O)[C@H]1CCCCN1C)C1CCC1)c1nc(C(=O)N[C@@H](Cc2ccccc2)C[C@H](C)C(=O)O)cs1
relative binding affinity (RBA) [1]: 0.03
pEC50 [2]: 7.62
pEC50 [3]: 7.89
pEC50 [4]: 7.05

CC[C@H](C)[C@H](NC(=O)[C@H]1CCCCN1C)C(=O)N(C)[C@H](C[C@@H](OC(=O)CC(C)C)c1nc(C(=O)N[C@@H](Cc2ccccc2)C[C@H](C)C(=O)O)cs1)C(C)C
relative binding affinity (RBA) [1]: 0.26
pEC50 [5]: 9.96
pEC50 [2]: 10.22

CCO[C@H](C[C@H](C(C)C)N(C)C(=O)[C@@H](NC(=O)[C@H]1CCCCN1C)C1CCCCC1)c1nc(C(=O)N[C@@H](Cc2ccccc2)C[C@H](C)C(=O)O)cs1
relative binding affinity (RBA) [1]: 0.4
pEC50 [2]: 9.00
pEC50 [3]: 9.70
pEC50 [4]: 8.22

CC[C@H](C)[C@H](NC(=O)[C@H]1CCCCN1C)C(=O)N(C)[C@H](C[C@@H](OC(C)=O)c1nc(C(=O)N[C@@H](Cc2ccccc2)C[C@H](C)C(=O)O)cs1)C(C)C
pEC50 [5]: 10.40
pEC50 [2]: 10.10

CCCO[C@H](C[C@H](C(C)C)N(C)C(=O)[C@@H](NC(=O)[C@H]1CCCCN1C)[C@@H](C)CC)c1nc(C(=O)N[C@@H](Cc2ccccc2)C[C@H](C)C(=O)O)cs1
relative binding affinity (RBA) [1]: 0.68
pEC50 [5]: 9.41
pEC50 [2]: 9.89

CCCC(=O)O[C@H](C[C@H](C(C)C)N(C)C(=O)[C@@H](NC(=O)[C@H]1CCCCN1C)[C@@H](C)CC)c1nc(C(=O)N[C@@H](Cc2ccccc2)C[C@H](C)C(=O)O)cs1
relative binding affinity (RBA) [1]: 0.52
pEC50 [5]: 10.30
pEC50 [2]: 10.40
